Measured values from paper PMC10464297, “Reevaluation of bromodomain ligands targeting BAZ2A” (Protein Science : A Publication of the Protein Society, 2023).
“Also recorded” adds a separate entry of the source. One block for each molecule: values may come before it.

Columns and labels:
BRPF3 = target: BRPF3; design: method as in Humphreys et al., [2017]; settings: lower potency than on PCAF/GCN5; ref Humphreys et al., [2017]; read-out: potency on BRPF3 bromodomain; cited from earlier work
PCAF = target: PCAF; design: method as in Humphreys et al., [2017]; settings: ref Humphreys et al., [2017]; read-out: K D PCAF bromodomain; cited from earlier work
BAZ2A bromodomain [1] = target: T1, BAZ2A bromodomain (Homo sapiens, UniProt Q9UIF9); assay: Screening by co‐crystallization with BAZ2A bromodomain; type: binding
T1 construct: BAZ2A and BAZ2B bromodomains were produced; made in house
T1 sequence (Q9UIF9 1793-1897 limits assumed): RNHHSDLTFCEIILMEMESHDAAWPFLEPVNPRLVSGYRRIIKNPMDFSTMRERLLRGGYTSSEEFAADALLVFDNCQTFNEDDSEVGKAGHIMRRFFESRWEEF
Source text: (§1) BAZ2A and BAZ2B bromodomains were produced and their activity evaluated by AlphaScreen as previously reported (Dalle Vedove et al., [2018]; Spiliotopoulos et al., [2017]). BAZ2A bromodomain was crystallized as detailed in an earlier work (Spiliotopoulos et al., [2017]). Diffraction data were collected at the Elettra Synchrotron Light Source (Trieste, Italy), XRD1 and XRD2 beamlines, and the European Synchrotron Radiation Facility (ESRF, Grenoble, France), ID30A‐1/MASSIF‐1 beamline. Data were processed and structures were solved as described elsewhere (Dalle Vedove et al., [2018]). Chemical synthesis of compounds UP39 and UZH23 has already been reported (Unzue et al., [2016]; Zhu et al., [2018]). A detailed description of cell culture methods and ITC protocol is provided in the Supporting Information.

BAZ2A bromodomain [2] = target: T1, BAZ2A bromodomain; assay: Isothermal titration calorimetry (ITC) on BAZ2A; type: binding
Source text: It is worth noticing however that these values may be slightly overestimated. The presence of 0.25% DMSO in the ITC experiments leads to less favorable K D values as DMSO competes for binding to the conserved Asn (Lolli & Battistutta, [2013]; Navratilova et al., [2016]). […] Indeed, the change in sign of the entropic term observed for TP‐238 binding to BAZ2A (compared to BPTF and CECR2) closely resembles the effect reported for crotonyllysine binding to the TAF1 bromodomain (compared to Kac), also displacing an additional water molecule from the binding pocket (Flynn et al., [2015]). […]
Isothermal Titration Calorimetry
ITC experiments were performed using an MicroCal PEAQ-IT C microcalorimeter (Malvern Panalytical, UK) at 25°C with a stirring speed of 750 rpm in 20mM Tris pH 7. 8, 0. 2 M NaCl, 0. 2 mM TCEP and 0. 25% DMSO. For each experiment, one 0. 4 µl injection followed by eighteen 2 µl injections have been performed, with 150 seconds separating each injectio n. The inhibitors were tested at 70 µM in the cell with His -Baz2A in the syringe at 1 mM. A blank run with only the buffer was carried out (Suppl. Fig. S6). Data analysis was done with PE A Q-ITC Analysis software , fitting the curve with the ‘one site’ model.

BAZ2B bromodomain = target: T2, BAZ2B bromodomain (Homo sapiens, UniProt Q9UIF8); assay: AlphaScreen binding competition, BAZ2B bromodomain; settings: for % residual binding BAZ2B (100 μM): compound at 100 μM
T2 construct: BAZ2A and BAZ2B bromodomains were produced; made in house
T2 sequence (Q9UIF8 2060-2164 limits assumed): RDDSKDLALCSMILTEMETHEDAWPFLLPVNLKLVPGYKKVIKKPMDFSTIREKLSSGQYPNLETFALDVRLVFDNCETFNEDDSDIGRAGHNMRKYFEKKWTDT
Source text: as §1
(§2) Figure S3. AlphaScreen competition binding assay for compounds UP39 and UZH23. The specific binding to the acetylated peptide relative to the control DMSO (y-axis) is plotted against the corresponding compound concentration in µM in log10 scale (x-axis).
(§3) (1 picture or pasted object on this page, not shown here)

GCN5 = target: GCN5; design: method as in Humphreys et al., [2017]; settings: ref Humphreys et al., [2017]; read-out: K D GCN5 bromodomain; cited from earlier work
BRPF1 = target: BRPF1; design: method as in Humphreys et al., [2017]; settings: lower potency than on PCAF/GCN5; ref Humphreys et al., [2017]; read-out: potency on BRPF1 bromodomain; cited from earlier work
BAZ2A bromodomain [3] = target: T1, BAZ2A bromodomain; assay: AlphaScreen binding competition, BAZ2A bromodomain; settings: for % residual binding BAZ2A (100 μM): compound at 100 μM
Source text: as §1, §2, §3

BRD1 = target: BRD1; design: method as in Humphreys et al., [2017]; settings: lower potency than on PCAF/GCN5; ref Humphreys et al., [2017]; read-out: potency on BRD1 bromodomain; cited from earlier work
22Rv1 spheroids = assay: Spheroid growth (3D), 22Rv1; type: cell-based
Method: (§4) Cell cultures, proliferation assay and spheroid gro wth
PC3 and 22Rv1 cells were cultured in RPMI 1640 medium containing 10% FBS, 1% penicillin-streptomycin and 2 m M L-glutamine. All cells were regularly tested for mycoplasma contamination. […]
Spheroids were obtained by plating PC3 and 22Rv1 cells in low -adhesion round bottom 96 -well plates. For 22Rv1, 2500 cells/well were seeded in 200 µl RPMI 1640; for PC3, 250 cells/well were seeded in 200 µl RPMI 1640 supplemented with 1.5% Matrigel. After seeding, the cells were centrifuged for 10 min at 1200 x g at 4°C. Spheroids were given 48 hours to form after seeding before adding the treatment or the carrier (0.1% DMSO). Medium supplemented with treatment/carrier was changed every 48 hours, for a total of 32 days for 22Rv1 and 16 days for PC3. Each spheroid was imaged in brightfield every day or every other day (after day 20), using a Leica DM IL microscope […]
(§5) equipped with a Leica DFC450C digital camera. The area of each spheroid was measured using ImageJ and the average area for each condition was calculated. The growth rate was analysed using the segmental linear regression algorithm of GraphPad Prism. The appropriateness of the model was evaluated by considering the R square values and the Replicates test (Suppl. Table 6). […]

PC3 spheroids = assay: Spheroid growth (3D), PC3; type: cell-based
Method: (§6) Cell cultures, proliferation assay and spheroid gro wth […]
streptomycin and 2 m M L-glutamine. All cells were regularly tested for mycoplasma contamination. […]
Spheroids were obtained by plating PC3 and 22Rv1 cells in low -adhesion round bottom 96 -well […]
After seeding, the cells were centrifuged for 10 min at 1200 x g at 4°C. Spheroids were given 48 hours to form after seeding before adding the treatment or the carrier (0.1% DMSO). Medium supplemented with treatment/carrier was changed every 48 hours, for a total of 32 days for 22Rv1 and 16 days for PC3. Each spheroid was imaged in brightfield every day or every other day (after day 20), using a Leica DM IL microscope […]
as §5

[4] = system: PC3 (AR‐negative) PCa cells; assay: 2D proliferation assay (resazurin), PC3; type: cell-based
Method: as §6
streptomycin and 2 m M L-glutamine. All cells were regularly tested for mycoplasma contamination.
For the proliferation assay, cells were counted with a hemocytometer and seeded in triplicates in 96-well plates (4 .5x10^3 cells/well for 22Rv1 and 2.0x103 for PC3) and let adhere overnight at 37°C, […]
(§7) transfected with siRNA for BAZ2A , RLUC or KIF11, as detailed below. The cells were incubated for 1, 3, 6 (PC3) and 9 days (22Rv1) and the medium containing either the carrier or the inhibitors was replaced every 3 day s. Cell proliferation and viability were determined at day 1, 3, 6 and 9 by adding 10% resazurin sodium salt solution (0. 03 mg/ml powder from Sigma -Aldrich) directly into each well and incubating them for 4h at 37°C, 5% CO 2. The absorbance at 570/600 nm was measured using a Varioskan plate reader. The reduction of the resazur in sodium salt was calculated using the formula: (Abs x – Abs 0. 1%DMSO day1)/(Abs 0. 1%DMSO day9 - Abs 0. 1%DMSO day1). The growth rate was analysed using the linear regression algorithm of GraphPad Prism. […]

[5] = system: 22Rv1 (AR‐positive) PCa cells; assay: 2D proliferation assay (resazurin), 22Rv1; type: cell-based
Method: as §4
PC3 and 22Rv1 cells were cultured in RPMI 1640 medium containing 10% FBS, 1% penicillin-streptomycin and 2 m M L-glutamine. All cells were regularly tested for mycoplasma contamination.
For the proliferation assay, cells were counted with a hemocytometer and seeded in triplicates in 96-well plates (4 .5x10^3 cells/well for 22Rv1 and 2.0x103 for PC3) and let adhere overnight at 37°C, 5% CO2. The following day, the medium was replaced with RPMI 1640 containing either the carrier […]
as §7

[6] = 3D setting, GSK2801 25 μM, BAZ2‐ICR 25 μM, BI9564 20 μM

located in BAZ2A Kac pocket by co‐crystallization (BAZ2A bromodomain [1]): located in the BAZ2A Kac pocket | Kd (BAZ2A bromodomain [2]; 25°C, 0.25% DMSO, read-out: K D BAZ2A): 165000 ± 8000 nM | TΔS (BAZ2A bromodomain [2]; BAZ2A): -5.8 kcal/mol | ΔG (BAZ2A bromodomain [2]; BAZ2A): -5.2 kcal/mol | ΔH (BAZ2A bromodomain [2]; BAZ2A): -11.0 ± 0.3 kcal/mol | N (sites) (BAZ2A bromodomain [2]; BAZ2A, one site model): 1 sites | % residual binding BAZ2B (100 μM) (BAZ2B bromodomain): 70 ± 3% | % residual binding BAZ2A (100 μM) (BAZ2A bromodomain [3]): 77 ± 5%
SMILES: CN1C[C@H](Nc2cnn(C)c(=O)c2Br)C[C@H](c2ccccc2)C1 [GSK4027]
Kd (BRPF3): 100 to 150 nM | Kd (PCAF): 1.4 nM | Kd (GCN5): 1.4 nM | Kd (BRPF1): 100 to 150 nM | Kd (BRD1): 100 to 150 nM

SMILES: COc1cc(-c2cn(C)c(=O)c3cnccc23)c(OC)cc1CN(C)C [BI9564]
effect on growth of 22Rv1 spheroids (22Rv1 spheroids; [6]): reduced the growth of 22Rv1 spheroids | slope2 (segmental linear regression of spheroid growth) (22Rv1 spheroids; 22Rv1 spheroids, 20 µM, after X0 = day 9): 6998 | slope1 (segmental linear regression of spheroid growth) (22Rv1 spheroids; 22Rv1 spheroids, 20 µM, before X0 = day 9): 12255 | effect on growth of PC3 spheroids (PC3 spheroids; [6]): less effective on PC3 | slope2 (segmental linear regression of spheroid growth) (PC3 spheroids; PC3 spheroids, 20 µM, after X0 = day 6): 69835 | slope1 (segmental linear regression of spheroid growth) (PC3 spheroids; PC3 spheroids, 20 µM, before X0 = day 6): 28821 | effect on 2D growth of PC3 cells ([4]; 2D‐cell culture, PC3): completely inactive on PC3 cells | Slope (best-fit, linear regression of growth curve) ([4]; PC3, 0.1 µM): 0,1514 | Slope (best-fit, linear regression of growth curve) ([4]; PC3, 0.25 µM): 0,1530 | Slope (best-fit, linear regression of growth curve) ([4]; PC3, 0.5 µM): 0,1594 | Slope (best-fit, linear regression of growth curve) ([4]; PC3, 1 µM): 0,1557 | Slope (best-fit, linear regression of growth curve) ([4]; PC3, 2.5 µM): 0,1485 | Slope (best-fit, linear regression of growth curve) ([4]; PC3, 5 µM): 0,1453 | Slope (best-fit, linear regression of growth curve) ([4]; PC3, 10 µM): 0,1454 | Slope (best-fit, linear regression of growth curve) ([4]; PC3, 20 µM): 0,1470 | effect on 2D growth of 22Rv1 cells ([5]; 2D‐cell culture, 22Rv1): only moderately affected 22Rv1 cell growth; also recorded: limited activity only on 22Rv1 cells | Slope (best-fit, linear regression of growth curve) ([5]; 22Rv1, 0.1 µM): 0,1043 | Slope (best-fit, linear regression of growth curve) ([5]; 22Rv1, 0.25 µM): 0,1062 | Slope (best-fit, linear regression of growth curve) ([5]; 22Rv1, 0.5 µM): 0,1057 | Slope (best-fit, linear regression of growth curve) ([5]; 22Rv1, 1 µM): 0,1046 | Slope (best-fit, linear regression of growth curve) ([5]; 22Rv1, 2.5 µM): 0,09943 | Slope (best-fit, linear regression of growth curve) ([5]; 22Rv1, 5 µM): 0,09452 | Slope (best-fit, linear regression of growth curve) ([5]; 22Rv1, 10 µM): 0,08987 | Slope (best-fit, linear regression of growth curve) ([5]; 22Rv1, 20 µM): 0,08043

IC50 (BAZ2B bromodomain; AlphaScreen): > 100000 nM | % residual binding BAZ2B (100 μM) (BAZ2B bromodomain): 62 ± 7% | IC50 (BAZ2A bromodomain [3]; AlphaScreen): 86000 ± 9000 nM | % residual binding BAZ2A (100 μM) (BAZ2A bromodomain [3]): 52 ± 9%
SMILES: CC(=O)n1cc(-c2c(C)nn3c2OCC3)c2ccccc21 [UZH23]
